{"source": "paper PMC10797614", "about": "“MYC-Targeting Inhibitors Generated from a Stereodiversified Bicyclic Peptide Library” (Journal of the American Chemical Society, 2024)", "key": {"[1]": {"settings": "free peptide; liposomes therefore used as delivery vehicles"}, "MYC": {"target": "T1, MYC (Homo sapiens, UniProt P01106)", "T1 construct": "made in house; host or cells: E. coli BL21(DE3)", "T1 sequence (P01106 16-454)": "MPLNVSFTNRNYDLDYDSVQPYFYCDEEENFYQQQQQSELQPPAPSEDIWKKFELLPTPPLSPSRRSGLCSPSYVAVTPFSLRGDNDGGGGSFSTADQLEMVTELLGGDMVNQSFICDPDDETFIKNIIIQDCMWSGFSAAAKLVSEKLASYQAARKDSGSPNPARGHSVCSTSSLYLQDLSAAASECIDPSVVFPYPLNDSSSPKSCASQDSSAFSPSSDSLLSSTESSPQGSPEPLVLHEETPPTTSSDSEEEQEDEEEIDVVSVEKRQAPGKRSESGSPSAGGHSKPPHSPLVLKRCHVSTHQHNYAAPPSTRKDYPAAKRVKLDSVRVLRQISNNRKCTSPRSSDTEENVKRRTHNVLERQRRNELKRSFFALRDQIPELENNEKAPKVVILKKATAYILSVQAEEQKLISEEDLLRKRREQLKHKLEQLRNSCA", "experiment": "Temperature-dependent circular dichroism spectroscopy", "assay_type": "binding", "settings": "NT-B2R 100 μM, MYC 0.1 mg/mL, 0.1 M phosphate buffer pH 7.4, 30 °C to 60 °C", "source_text": "To further study the nature of the interaction between NT-B2R and MYC, we leveraged temperature-dependent circular dichroism (CD) spectroscopy. Here, if no conformation change was involved, the CD spectra of the MYC/NT-B2R mixture would be the addition of each component’s spectra (Figure 3J, calculated). However, we observed drastically different CD spectra (Figure 3J, measured and difference).\nProtein thermal shift assay with GlomeltTM\nFollow the Biotium’s protocol PI-3302133022. The reactions were set up in qPCR tubes, for each tube 1 μg recombinant MYC protein (1 μg/μL, 1 μL), GlomeltTM dye (10x, 2 μL), peptide ligand (2x, 10 uL, final concentration 500 μM), PBS (1x, 7 uL) to make a total volume of 20 μL with triplicate. For control group, PBS (1x, 17 μL) was used without peptide ligand. […] The resulting curve was fitted with a Boltzmann curve within the range of 45-60 °C and Tm was calculated from the fitted curve. […]\nNT-B2R peptide and MYC protein were diluted to the final working concentrations of 100 μM and 0.1 mg/mL respectively. […] Spectra in the 180-280 nm range were recorded in a 1 mm path length cell.\nThe collected CD spectra were processed in OriginProTM. […] Spectra addition and subtraction were performed before the matrix conversion to generate the calculated and difference […]"}, "U87 cells": {"test_system": "U87 cells", "experiment": "Cell viability test (resazurin), U87", "assay_type": "cell-based, human", "settings": "peptide-loaded DOTAP/DOPE liposomes vs empty liposomes, 48 hours, resazurin fluorescence", "method": "Liposome loading capacity quantification\n200 μL of the liposome solution (4 mg/mL) was dried under vacuum and extracted with 50 μL of DMSO. The obtained solution was analyzed on a reverse-phase HPLC and the corresponding peptide peak was identified by mass spectrometry. The peptide concentration was then determined by comparing the peak area to that of a standard solution. The loading capacities were calculated accordingly.\nCells were seeded in a 96-well plate at 4 k/well and incubated overnight. Afterward, the cells were washed with complete media and treated with varying concentrations of peptide-loaded liposome or empty liposome. The final media volume was 200 μL in each well. The cells were treated for 48 hours and then washed with fresh media to remove residue peptides or liposomes. For a single well, Resazurin (10 μg/mL in PBS) mixed with 200 μL of fresh cell media was added, and the plate was incubated at 37 °C for 3 hours. The 96-well plate was shaken for 15 min on an orbital mixer in dark, and the fluorescence (540 nm excitation, 590 nm emission) intensities were read by a […]\nU87 cells were detached by trypsin and resuspended in 5 mL of PBS(1x). […] The protein concentrations were determined by BCA assay.\nTo prepare the sample for the cellular thermal shift assay, the quantified cell lysate was adjusted to a final concentration of 1.481 mg/mL with lysis buffer. […]"}}, "note": "*1 amine or outer side, *2 acyl side, *3 side chain or, on linkers, in order; H or OH if unused. Where a SMILES comes first, the peptide text is derived from it. Bridges are numbered along the chain shown (N, C = ends). X1 = O=C([C@@H]1C[C@H](C=CCO[*:3])C[C@@H]1C=CCO[*:1])[*:2]", "data": [{"smiles": "CC(C)C[C@@H]1NC(=O)[C@H](CCCNC(=N)N)NC(=O)[C@@H]2CCCCNC(=O)[C@@H]3C[C@H](C=CCOC(=O)CC[C@@H](C(N)=O)NC1=O)C[C@@H]3C=CCOC(=O)CC[C@H](N)C(=O)N[C@@H](Cc1c[nH]c3ccccc13)C(=O)N1CCC[C@H]1C(=O)N[C@@H](Cc1c[nH]cn1)C(=O)N[C@@H](CCCNC(=N)N)C(=O)N2", "note": "[NT-B2R] (H-EWPHRKRLE-NH2; linker 1-6-9 via X1; N-terminus and C-terminus assumed)", "values": [{"measurement": "cell permeability (in words)", "setting": "[1]", "result": "not cell-permeable"}, {"measurement": "CD spectra of MYC/peptide mixture versus calculated sum (in words)", "setting": "MYC", "result": "significant changes in the conformation landscape"}, {"measurement": "metabolic activity and proliferation (viability), U87", "setting": "U87 cells", "result": "decreased metabolic activity and proliferation"}]}]}
